Measurements taken from PubChem BioAssay (NCI).
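How tested: cells in 96-well plates exposed to compound for 48 hours at five concentrations. TGI is the concentration that stops growth completely.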

Legend:
Test in all cases: DTP human tumour cell line panel, 48 h
786-0 renal = system: 786-0 renal
A498 renal = system: A498 renal
A549 NSCLC = system: A549 NSCLC
ACHN renal = system: ACHN renal
BT-549 breast = system: BT-549 breast
CAKI-1 renal = system: CAKI-1 renal
CCRF-CEM leukemia = system: CCRF-CEM leukemia
COLO 205 colon = system: COLO 205 colon
DU-145 prostate = system: DU-145 prostate
EKVX NSCLC = system: EKVX NSCLC
HCC-2998 colon = system: HCC-2998 colon
HCT-116 colon = system: HCT-116 colon
HCT-15 colon = system: HCT-15 colon
HOP-62 NSCLC = system: HOP-62 NSCLC
HOP-92 NSCLC = system: HOP-92 NSCLC
HS 578T breast = system: HS 578T breast
HT29 colon = system: HT29 colon
IGROV1 ovarian = system: IGROV1 ovarian
K-562 leukemia = system: K-562 leukemia
KM12 colon = system: KM12 colon
LOX IMVI melanoma = system: LOX IMVI melanoma
M14 melanoma = system: M14 melanoma
MALME-3M melanoma = system: MALME-3M melanoma
MCF7 breast = system: MCF7 breast
MDA-MB-231 breast = system: MDA-MB-231 breast
MDA-MB-435 = system: MDA-MB-435
MDA-N = system: MDA-N
MOLT-4 leukemia = system: MOLT-4 leukemia
NCI-H226 lung = system: NCI-H226 lung
NCI-H23 lung = system: NCI-H23 lung
NCI-H460 lung = system: NCI-H460 lung
NCI-H522 lung = system: NCI-H522 lung
NCI/ADR-RES ovarian = system: NCI/ADR-RES ovarian
OVCAR-3 ovarian = system: OVCAR-3 ovarian
OVCAR-4 ovarian = system: OVCAR-4 ovarian
OVCAR-5 ovarian = system: OVCAR-5 ovarian
OVCAR-8 ovarian = system: OVCAR-8 ovarian
PC-3 prostate = system: PC-3 prostate
RPMI-8226 leukemia = system: RPMI-8226 leukemia
RXF 393 renal = system: RXF 393 renal
SF-268 CNS = system: SF-268 CNS
SF-295 CNS = system: SF-295 CNS
SF-539 CNS = system: SF-539 CNS
SK-MEL-2 melanoma = system: SK-MEL-2 melanoma
SK-MEL-28 melanoma = system: SK-MEL-28 melanoma
SK-MEL-5 melanoma = system: SK-MEL-5 melanoma
SK-OV-3 ovarian = system: SK-OV-3 ovarian
SN12C renal = system: SN12C renal
SNB-19 CNS = system: SNB-19 CNS
SNB-75 CNS = system: SNB-75 CNS
SR leukemia = system: SR leukemia
SW-620 colon = system: SW-620 colon
T-47D breast = system: T-47D breast
TK-10 renal = system: TK-10 renal
U251 CNS = system: U251 CNS
UACC-257 melanoma = system: UACC-257 melanoma
UACC-62 melanoma = system: UACC-62 melanoma
UO-31 renal = system: UO-31 renal

## ONCCCn1cnc2c(NC3CC3)ncnc21
786-0 renal
  TGI: > 100 µM
A498 renal
  TGI: > 100 µM
A549 NSCLC
  TGI: > 100 µM
ACHN renal
  TGI: > 100 µM
BT-549 breast
  TGI: > 100 µM
CAKI-1 renal
  TGI: > 100 µM
CCRF-CEM leukemia
  TGI: > 100 µM
COLO 205 colon
  TGI: > 100 µM
DU-145 prostate
  TGI: > 100 µM
EKVX NSCLC
  TGI: > 100 µM
HCC-2998 colon
  TGI: > 100 µM
HCT-116 colon
  TGI: > 100 µM
HCT-15 colon
  TGI: > 100 µM
HOP-62 NSCLC
  TGI: > 100 µM
HOP-92 NSCLC
  TGI: > 100 µM
HS 578T breast
  TGI: > 100 µM
HT29 colon
  TGI: > 100 µM
IGROV1 ovarian
  TGI: > 100 µM
K-562 leukemia
  TGI: > 100 µM
KM12 colon
  TGI: > 100 µM
LOX IMVI melanoma
  TGI: > 100 µM
M14 melanoma
  TGI: > 100 µM
MALME-3M melanoma
  TGI: > 100 µM
MCF7 breast
  TGI: > 100 µM
MDA-MB-231 breast
  TGI: > 100 µM
MDA-MB-435
  TGI: > 100 µM
MDA-N
  TGI: > 100 µM
MOLT-4 leukemia
  TGI: > 100 µM
NCI-H226 lung
  TGI: > 100 µM
NCI-H23 lung
  TGI: > 100 µM
NCI-H460 lung
  TGI: > 100 µM
NCI-H522 lung
  TGI: > 100 µM
NCI/ADR-RES ovarian
  TGI: > 100 µM
OVCAR-3 ovarian
  TGI: > 100 µM
OVCAR-4 ovarian
  TGI: > 100 µM
OVCAR-5 ovarian
  TGI: > 100 µM
OVCAR-8 ovarian
  TGI: > 100 µM
PC-3 prostate
  TGI: > 100 µM
RPMI-8226 leukemia
  TGI: > 100 µM
RXF 393 renal
  TGI: > 100 µM
SF-268 CNS
  TGI: > 100 µM
SF-295 CNS
  TGI: > 100 µM
SF-539 CNS
  TGI: > 100 µM
SK-MEL-2 melanoma
  TGI: > 100 µM
SK-MEL-28 melanoma
  TGI: > 100 µM
SK-MEL-5 melanoma
  TGI: > 100 µM
SK-OV-3 ovarian
  TGI: > 100 µM
SN12C renal
  TGI: > 100 µM
SNB-19 CNS
  TGI: > 100 µM
SNB-75 CNS
  TGI: > 100 µM
SR leukemia
  TGI: > 100 µM
SW-620 colon
  TGI: > 100 µM
T-47D breast
  TGI: > 100 µM
TK-10 renal
  TGI: > 100 µM
U251 CNS
  TGI: > 100 µM
UACC-257 melanoma
  TGI: > 100 µM
UACC-62 melanoma
  TGI: > 100 µM
UO-31 renal
  TGI: > 100 µM

## CCn1c(=O)c2cn[nH]c2n(C)c1=O
786-0 renal
  TGI: > 100 µM
A498 renal
  TGI: > 100 µM
A549 NSCLC
  TGI: > 100 µM
ACHN renal
  TGI: > 100 µM
BT-549 breast
  TGI: > 100 µM
CAKI-1 renal
  TGI: > 100 µM
CCRF-CEM leukemia
  TGI: > 100 µM
COLO 205 colon
  TGI: > 100 µM
DU-145 prostate
  TGI: > 100 µM
EKVX NSCLC
  TGI: > 100 µM
HCC-2998 colon
  TGI: > 100 µM
HCT-116 colon
  TGI: > 100 µM
HCT-15 colon
  TGI: > 100 µM
HOP-62 NSCLC
  TGI: > 100 µM
HOP-92 NSCLC
  TGI: > 100 µM
HS 578T breast
  TGI: > 100 µM
HT29 colon
  TGI: > 100 µM
IGROV1 ovarian
  TGI: > 100 µM
K-562 leukemia
  TGI: > 100 µM
KM12 colon
  TGI: > 100 µM
LOX IMVI melanoma
  TGI: > 100 µM
M14 melanoma
  TGI: > 100 µM
MALME-3M melanoma
  TGI: > 100 µM
MCF7 breast
  TGI: > 100 µM
MDA-MB-231 breast
  TGI: > 100 µM
MDA-MB-435
  TGI: > 100 µM
MDA-N
  TGI: > 100 µM
MOLT-4 leukemia
  TGI: > 100 µM
NCI-H226 lung
  TGI: > 100 µM
NCI-H23 lung
  TGI: > 100 µM
NCI-H460 lung
  TGI: > 100 µM
NCI-H522 lung
  TGI: > 100 µM
NCI/ADR-RES ovarian
  TGI: > 100 µM
OVCAR-3 ovarian
  TGI: > 100 µM
OVCAR-4 ovarian
  TGI: > 100 µM
OVCAR-5 ovarian
  TGI: > 100 µM
OVCAR-8 ovarian
  TGI: > 100 µM
PC-3 prostate
  TGI: > 100 µM
RPMI-8226 leukemia
  TGI: > 100 µM
RXF 393 renal
  TGI: > 100 µM
SF-268 CNS
  TGI: > 100 µM
SF-295 CNS
  TGI: > 100 µM
SF-539 CNS
  TGI: > 100 µM
SK-MEL-2 melanoma
  TGI: > 100 µM
SK-MEL-28 melanoma
  TGI: > 100 µM
SK-MEL-5 melanoma
  TGI: > 100 µM
SK-OV-3 ovarian
  TGI: > 100 µM
SN12C renal
  TGI: > 100 µM
SNB-19 CNS
  TGI: > 100 µM
SNB-75 CNS
  TGI: > 100 µM
SR leukemia
  TGI: > 100 µM
SW-620 colon
  TGI: > 100 µM
T-47D breast
  TGI: > 100 µM
TK-10 renal
  TGI: > 100 µM
U251 CNS
  TGI: > 100 µM
UACC-257 melanoma
  TGI: > 100 µM
UACC-62 melanoma
  TGI: > 100 µM
UO-31 renal
  TGI: > 100 µM

## Cc1cccc2nc3cccc(C(=O)NCCC[N+](C)(CCCNC(=O)c4cccc5nc6cccc(C)c6nc45)Cc4ccc([N+](=O)[O-])n4C)c3nc12
786-0 renal
  TGI: > 100 µM
A498 renal
  TGI: > 100 µM
A549 NSCLC
  TGI: > 100 µM
ACHN renal
  TGI: > 100 µM
BT-549 breast
  TGI: > 100 µM
CAKI-1 renal
  TGI: > 100 µM
CCRF-CEM leukemia
  TGI: > 26.9 µM
COLO 205 colon
  TGI: > 100 µM
DU-145 prostate
  TGI: > 100 µM
EKVX NSCLC
  TGI: > 100 µM
HCC-2998 colon
  TGI: > 100 µM
HCT-116 colon
  TGI: > 100 µM
HCT-15 colon
  TGI: > 100 µM
HOP-62 NSCLC
  TGI: > 100 µM
HOP-92 NSCLC
  TGI: > 100 µM
HS 578T breast
  TGI: > 100 µM
HT29 colon
  TGI: > 100 µM
IGROV1 ovarian
  TGI: > 100 µM
K-562 leukemia
  TGI: > 100 µM
KM12 colon
  TGI: > 100 µM
LOX IMVI melanoma
  TGI: > 100 µM
M14 melanoma
  TGI: > 100 µM
MALME-3M melanoma
  TGI: > 100 µM
MCF7 breast
  TGI: > 100 µM
MDA-MB-231 breast
  TGI: > 100 µM
MDA-MB-435
  TGI: > 100 µM
MDA-N
  TGI: > 100 µM
MOLT-4 leukemia
  TGI: 26.2 µM
NCI-H226 lung
  TGI: > 100 µM
NCI-H23 lung
  TGI: > 100 µM
NCI-H460 lung
  TGI: > 100 µM
NCI-H522 lung
  TGI: > 100 µM
NCI/ADR-RES ovarian
  TGI: > 100 µM
OVCAR-3 ovarian
  TGI: > 100 µM
OVCAR-4 ovarian
  TGI: > 100 µM
OVCAR-5 ovarian
  TGI: > 100 µM
OVCAR-8 ovarian
  TGI: > 100 µM
PC-3 prostate
  TGI: > 100 µM
RPMI-8226 leukemia
  TGI: > 100 µM
RXF 393 renal
  TGI: > 100 µM
SF-268 CNS
  TGI: > 100 µM
SF-295 CNS
  TGI: > 100 µM
SK-MEL-2 melanoma
  TGI: > 100 µM
SK-MEL-28 melanoma
  TGI: > 100 µM
SK-MEL-5 melanoma
  TGI: > 100 µM
SK-OV-3 ovarian
  TGI: > 100 µM
SN12C renal
  TGI: > 100 µM
SNB-19 CNS
  TGI: > 100 µM
SNB-75 CNS
  TGI: > 100 µM
SR leukemia
  TGI: > 100 µM
SW-620 colon
  TGI: > 100 µM
T-47D breast
  TGI: > 100 µM
TK-10 renal
  TGI: > 100 µM
U251 CNS
  TGI: > 100 µM
UACC-257 melanoma
  TGI: > 100 µM
UACC-62 melanoma
  TGI: > 100 µM
UO-31 renal
  TGI: > 100 µM
